Measured values published in US11673901B2, “Polycyclic compounds as allosteric SHP2 inhibitors” (Revolution Medicines, Inc., priority 2017, dated 2023).

What follows are molecules tested against SHP2 (Homo sapiens (Human), UniProt Q06124) (assay: SHP2 allosteric inhibition assay (DiFMUP prompt fluorescence)). Settings: 0.2 nM SHP2 activated with 0.5 μM Activating Peptide 1 or 2; substrate DiFMUP; Table 1.
Chain of SHP2 (Q06124 whole entry): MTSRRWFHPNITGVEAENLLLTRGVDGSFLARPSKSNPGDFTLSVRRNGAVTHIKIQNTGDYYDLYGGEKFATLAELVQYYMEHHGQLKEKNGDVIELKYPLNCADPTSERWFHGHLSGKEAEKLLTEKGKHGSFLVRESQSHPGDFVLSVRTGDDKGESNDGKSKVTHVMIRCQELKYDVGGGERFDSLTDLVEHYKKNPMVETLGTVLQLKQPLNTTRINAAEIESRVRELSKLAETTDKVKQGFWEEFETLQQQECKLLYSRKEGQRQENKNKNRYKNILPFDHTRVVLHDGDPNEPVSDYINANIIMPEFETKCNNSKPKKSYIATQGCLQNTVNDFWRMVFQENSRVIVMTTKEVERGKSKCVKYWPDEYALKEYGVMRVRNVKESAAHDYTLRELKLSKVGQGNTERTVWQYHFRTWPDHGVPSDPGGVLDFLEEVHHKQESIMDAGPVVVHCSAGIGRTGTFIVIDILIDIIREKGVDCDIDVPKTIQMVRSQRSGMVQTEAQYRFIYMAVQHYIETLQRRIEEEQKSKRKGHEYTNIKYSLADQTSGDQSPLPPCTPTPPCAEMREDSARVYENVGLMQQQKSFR
Assay type: biochemical
Source text: Without wishing to be bound by theory, SHP2 is allosterically activated through binding of bis-tyrosyl-phosphorylated peptides to its Src Homology 2 (SH2) domains. The latter activation step leads to the release of the auto-inhibitory interface of SHP2, which in turn renders the SHP2 protein tyrosine phosphatase (PTP) active and available for substrate recognition and reaction catalysis. The catalytic activity of SHP2 was monitored using the surrogate substrate DiFMUP in a prompt fluorescence assay format.
The phosphatase reactions were performed at room temperature in 96-well black polystyrene plate, flat bottom, non-binding surface (Corning, Cat #3650) using a final reaction volume of 100 μL and the following assay buffer conditions: 50 mM HEPES, pH 7.2, 100 mM NaCl, 0.5 mM EDTA, 0.05% P-20, 1 mM DTT.
The inhibition of SHP2 by compounds of the invention (concentrations varying from 0.00005-10 μM) was monitored using an assay in which 0.2 nM of SHP2 was incubated with 0.5 μM of Activating Peptide 1 (sequence: H2N-LN(pY)IDLDLV(dPEG8)LST(pY)ASINFQK-amide) or Activating Peptide 2 (sequence: H2N-LN(pY)AQLWHA(dPEG8)LTI(pY)ATIRRF-amide). After 30-60-minutes incubation at 25° C., the surrogate substrate DiFMUP (Invitrogen, Cat #D6567) was added to the reaction and activity was determined by a kinetic read using a microplate reader (Envision, Perkin-Elmer or Spectramax M5, Molecular Devices). The excitation and emission wavelengths were 340 nm and 450 nm, respectively. Initial rates were determined from a linear fit of the data, and the inhibitor dose response curves were analyzed using normalized IC50 regression curve fitting with control based normalization.
Work on Cc1nc(N2CCC3(CC2)CO[C@@H](C)[C@H]3N)n2cnnc2c1-c1cccc(Cl)c1Cl [Compound 6 (Example 6)] yielded an IC50 of 10 nM. Molecule CC1(N)CCN(c2ncc(Sc3ccnc(N)c3Cl)c3nccn23)CC1 [Compound 2 (Example 2)] has an IC50 of 120 nM.

Same assay, conditions: 0.2 nM SHP2 activated with 0.5 μM Activating Peptide 1 or 2; substrate DiFMUP; Table 2, class symbols
For Cc1nc(N2CCC3(CC2)CO[C@@H](C)[C@H]3N)n2ccnc2c1-c1ccc2c(c1Cl)OCCC2 [Compound 43, (3S,4S)-8-[8-(8-chloro-3,4-dihydro-2H-1-benzopyran-7-yl)-7-methylimidazo[1,2-c]pyrimidin-5-yl]-3-methyl-2-oxa-8-azaspiro[4.5]decan-4-amine], the IC50 was ≤ 50 nM. In the case of Cc1nc(N2CCC3(CC2)CO[C@@H](C)[C@H]3N)n2ccnc2c1-c1ccc(O)c(Cl)c1Cl [Compound 54, 4-{5-[(3S,4S)-4-amino-3-methyl-2-oxa-8-azaspiro[4.5]decan-8-yl]-7-methylimidazo[1,2-c]pyrimidin-8-yl}-2,3-dichlorophenol], the IC50 is reported as ≤ 50 nM. With Cc1cc(Sc2cnc(N3CCC4(CC3)CO[C@@H](C)[C@H]4N)n3ccnc23)cc(N)n1 [Compound 18, (3S,4S)-8-{8-[(2-amino-6-methylpyridin-4-yl)sulfanyl]imidazo[1,2-c]pyrimidin-5-yl}-3-methyl-2-oxa-8-azaspiro[4.5]decan-4-amine] the IC50 was 50 to 500 nM. Work on CC1(N)CCN(c2ncc(Sc3ccnc(N)c3Cl)c3nncn23)CC1 [Compound 7, 4-{[5-(4-amino-4-methylpiperidin-1-yl)-[1,2,4]triazolo[4,3-c]pyrimidin-8-yl]sulfanyl}-3-chloropyridin-2-amine] yielded an IC50 of 50 to 500 nM. In the case of Cc1nc(N2CCC3(CC2)CO[C@@H](C)[C@H]3N)n2ccnc2c1-c1cccc2cc[nH]c12 [Compound 35, (3S,4S)-8-[8-(1H-indol-7-yl)-7-methylimidazo[1,2-c]pyrimidin-5-yl]-3-methyl-2-oxa-8-azaspiro[4.5]decan-4-amine], the IC50 is reported as ≤ 50 nM. CC1(N)CN(c2ncc(Sc3ccnc(N)c3Cl)c3nccn23)C1 [Compound 26, 4-{[5-(3-amino-3-methylazetidin-1-yl)imidazo[1,2-c]pyrimidin-8-yl]sulfanyl}-3-chloropyridin-2-amine] was tested, and the IC50 was > 500 nM. With COc1cccc(-c2cnc(N3CCC4(CC3)CO[C@@H](C)[C@H]4N)n3ccnc23)c1Cl [Compound 57, (3S,4S)-8-[8-(2-chloro-3-methoxyphenyl)imidazo[1,2-c]pyrimidin-5-yl]-3-methyl-2-oxa-8-azaspiro[4.5]decan-4-amine] the IC50 was 50 to 500 nM. In the case of Cc1nc(N2CCC3(CC2)CO[C@@H](C)[C@H]3N)n2ccnc2c1-c1ccnc2cc[nH]c12 [Compound 53, (3S,4S)-3-methyl-8-(7-methyl-8-{1H-pyrrolo[3,2-b]pyridin-7-yl}imidazo[1,2-c]pyrimidin-5-yl)-2-oxa-8-azaspiro[4.5]decan-4-amine], the IC50 is reported as ≤ 50 nM. For CNC(=O)O[C@H]1C[C@@H](N)C2(CCN(c3nc(C)c(-c4cccc(Cl)c4Cl)c4nccn34)CC2)C1 [Compound 63, (2R,4R)-4-amino-8-[8-(2,3-dichlorophenyl)-7-methylimidazo[1,2-c]pyrimidin-5-yl]-8-azaspiro[4.5]decan-2-yl N-methylcarbamate], the IC50 was ≤ 50 nM. For C[C@@H]1OCC2(CCN(c3ncc(Sc4ccnc(N5CC(C#N)C5)c4Cl)c4nccn34)CC2)[C@@H]1N [Compound 13, 1-[4-({5-[(3S,4S)-4-amino-3-methyl-2-oxa-8-azaspiro[4.5]decan-8-yl]imidazo[1,2-c]pyrimidin-8-yl}sulfanyl)-3-chloropyridin-2-yl]azetidine-3-carbonitrile], the IC50 was ≤ 50 nM. For C[C@H](O)CNc1ncc(Sc2ccnc(N)c2Cl)c2nccn12 [Compound 74], the IC50 was > 500 nM. With C[C@@H]1OCC2(CCN(c3ncc(Sc4ccnc5nc[nH]c45)c4nccn34)CC2)[C@@H]1N [Compound 17, (3S,4S)-8-(8-{1H-imidazo[4,5-b]pyridin-7-ylsulfanyl}imidazo[1,2-c]pyrimidin-5-yl)-3-methyl-2-oxa-8-azaspiro[4.5]decan-4-amine] the IC50 was ≤ 50 nM. C[C@@H]1OCC2(CCN(c3ncc(Sc4ccnc(N5CC(O)C5)c4Cl)c4nccn34)CC2)[C@@H]1N [Compound 10, 1-[4-({5-[(3S,4S)-4-amino-3-methyl-2-oxa-8-azaspiro[4.5]decan-8-yl]imidazo[1,2-c]pyrimidin-8-yl}sulfanyl)-3-chloropyridin-2-yl]azetidin-3-ol] was tested, and the IC50 was ≤ 50 nM. Nc1nccc(Sc2cnc(N3CC(O)C3)n3ccnc23)c1Cl [Compound 75] was tested, and the IC50 was > 500 nM. With Cc1nc(N2CCC3(CC2)CO[C@@H](C)[C@H]3N)n2ccnc2c1-c1ccc2c(c1Cl)OCC2 [Compound 44, (3S,4S)-8-[8-(7-chloro-2,3-dihydro-1-benzofuran-6-yl)-7-methylimidazo[1,2-c]pyrimidin-5-yl]-3-methyl-2-oxa-8-azaspiro[4.5]decan-4-amine] the IC50 was ≤ 50 nM. With Cc1nc(N2CCC3(CC2)CO[C@@H](C)[C@H]3N)n2ccnc2c1-c1ccn2ccnc2c1 [Compound 51, (3S,4S)-8-(8-imidazo[1,2-a]pyridin-7-yl-7-methyl-imidazo[1,2-c]pyrimidin-5-yl)-3-methyl-2-oxa-8-azaspiro[4.5]decan-4-amine] the IC50 was 50 to 500 nM. COc1ccc(-c2c(C)nc(N3CCC4(CC3)CO[C@@H](C)[C@H]4N)n3ccnc23)c(Cl)c1C#N [Compound 31, 3-{5-[(3S,4S)-4-amino-3-methyl-2-oxa-8-azaspiro[4.5]decan-8-yl]-7-methylimidazo[1,2-c]pyrimidin-8-yl}-2-chloro-6-methoxybenzonitrile] was tested, and the IC50 was ≤ 50 nM. For COc1cc(Cl)c(Cl)c(-c2c(C)nc(N3CCC4(CC3)CO[C@@H](C)[C@H]4N)n3ccnc23)c1 [Compound 49, (3S,4S)-8-[8-(2,3-dichloro-5-methoxyphenyl)-7-methylimidazo[1,2-c]pyrimidin-5-yl]-3-methyl-2-oxa-8-azaspiro[4.5]decan-4-amine], the IC50 was ≤ 50 nM. In the case of Nc1nccc(Sc2cnc(N3CC[C@H](O)C3)n3ccnc23)c1Cl [Compound 76], the IC50 is reported as > 500 nM. Nc1nccc(Sc2cnc(N3CCC[C@H]3CO)n3ccnc23)c1Cl [Compound 67] was tested, and the IC50 was > 500 nM. With C[C@@H]1OCC2(CCN(c3ncc(Sc4ccnc(N)c4Cl)c4nccn34)CC2)[C@@H]1N [Compound 1, (3S,4S)-8-{8-[(2-amino-3-chloropyridin-4-yl)sulfanyl]imidazo[1,2-c]pyrimidin-5-yl}-3-methyl-2-oxa-8-azaspiro[4.5]decan-4-amine] the IC50 was ≤ 50 nM. With N[C@@H]1CCCC12CCN(c1ccc(-c3cccc(Cl)c3Cl)c3cncn13)CC2 [Compound 5, (1R)-8-[8-(2,3-dichlorophenyl)imidazo[1,5-a]pyridin-5-yl]-8-azaspiro[4.5]decan-1-amine] the IC50 was > 500 nM. For Nc1nccc(Sc2cnc(N3CCC(c4ncc[nH]4)CC3)n3ccnc23)c1Cl [Compound 78], the IC50 was > 500 nM. In the case of Nc1nccc(Sc2cnc(N[C@H]3CC[C@@H](O)C3)n3ccnc23)c1Cl [Compound 80], the IC50 is reported as > 500 nM. With Cc1nc(N2CCC3(CC2)CO[C@@H](C)[C@H]3N)n2ccnc2c1-c1cccc(Cl)c1Cl [Compound 8, (3S,4S)-8-[8-(2,3-dichlorophenyl)-7-methylimidazo[1,2-c]pyrimidin-5-yl]-3-methyl-2-oxa-8-azaspiro[4.5]decan-4-amine] the IC50 was ≤ 50 nM. With C[C@@H]1OCC2(CCN(c3ncc(-c4ccnc(N)c4Cl)c4nccn34)CC2)[C@@H]1N [Compound 60, (3S,4S)-8-[8-(2-amino-3-chloropyridin-4-yl)imidazo[1,2-c]pyrimidin-5-yl]-3-methyl-2-oxa-8-azaspiro[4.5]decan-4-amine] the IC50 was > 500 nM. In the case of Cc1nc(N2CCC3(CC2)CO[C@@H](C)[C@H]3N)n2ccnc2c1-c1cc(Cl)cc2cc[nH]c12 [Compound 52, (3S,4S)-8-[8-(5-chloro-1H-indol-7-yl)-7-methylimidazo[1,2-c]pyrimidin-5-yl]-3-methyl-2-oxa-8-azaspiro[4.5]decan-4-amine], the IC50 is reported as ≤ 50 nM. CC1(O)CCN(c2ncc(Sc3ccnc(N)c3Cl)c3nccn23)CC1 [Compound 79] was tested, and the IC50 was > 500 nM. In the case of COc1cccc(-c2c(C)nc(N3CCC4(CC3)C[C@@H](OC3COC3)C[C@H]4N)n3ccnc23)c1Cl [Compound 64, (2R,4R)-8-[8-(2-chloro-3-methoxy-phenyl)-7-methyl-imidazo[1,2-c]pyrimidin-5-yl]-2-(oxetan-3-yloxy)-8-azaspiro[4.5]decan-4-amine], the IC50 is reported as ≤ 50 nM. For NC(=O)CNc1ncc(Sc2ccnc(N)c2Cl)c2nccn12 [Compound 66, 2-({8-[(2-amino-3-chloropyridin-4-yl)sulfanyl]imidazo[1,2-c]pyrimidin-5-yl}amino)acetamide], the IC50 was > 500 nM. Nc1nccc(Sc2cnc(N3CCOCC3)n3ccnc23)c1Cl [Compound 68] was tested, and the IC50 was > 500 nM. With C[C@@H]1OCC2(CCN(c3ncc(-c4ccnc5[nH]ccc45)c4nccn34)CC2)[C@@H]1N [Compound 59, (3S,4S)-3-methyl-8-(8-{1H-pyrrolo[2,3-b]pyridin-4-yl}imidazo[1,2-c]pyrimidin-5-yl)-2-oxa-8-azaspiro[4.5]decan-4-amine] the IC50 was > 500 nM.
